Test results: PMC8878468, “Image-Based Annotation of Chemogenomic Libraries for Phenotypic Screening” (Molecules, 2022)
Like-named read-outs stand apart in the source and are kept apart here.

What was measured:
[1] = tested on: HCT116-FUCCI cells; test: FUCCI cell cycle assay with nuclear gating; type: cell-based, human; conditions: for main nuclei color / change of FUCCI nuclei population in comparison to DMSO: 10 µM; for main nuclei color: Table S3; for change of FUCCI nuclei population in comparison to DMSO: up to 70 h; for IC50: Homo sapiens, average and SEM of two independent experiments
Procedure: For generation of a stable cell line, including the florescent ubiquitination-base cell cycle indicator FUCCI, the plasmid-based transposon system Sleeping Beauty was used. Vector (pSBbi_Fucci) and the Transposase SB100X have been described previously. […] Two days after transfection, cells were selected over 10 days using puromycin (1 µg/mL) and cultivated afterwards for two more weeks in McCoys 5A plus L-Glutamine (Gibco) supplemented by 10% FBS (Gibco) and Penicillin/Streptomycin (Gibco).
Fluorescence and cellular shape were measured before and after compound treatment for 72 h every 12 h using the CQ1 high-content confocal microscope (Yokogawa). […]
Image analysis was performed using the CellPathfinder software (Yokogawa). Segmentation of cells was performed as described earlier. First, the cells are classified in Hoechst High Intensity Objects or Normal Intensity Objects (Supplementary Table S7). All normal gated cells are further classified in healthy, fragmented or pyknosed nuclei (Supplementary Table S7). […] Total cell count was normalized against total cell count of cells treated with 0.1% DMSO.

[2] = tested on: HCT116-FUCCI cells; design: method as in per compound as in column reference of Table S3; conditions: literature annotation in Table S3; ref per compound as in Table S3; cited from earlier work
[3] = tested on: U2OS cells; conditions: High-Via Extend protocol, cell line and unit inferred
[4] = tested on: U2OS cells; test: Multiplex high-content protocol (nuclei gating, tubulin, mitochondrial mass, membrane permeability); type: cell-based, human; conditions: U2OS
Procedure: Using the CQ1 high-content confocal microscope (Yokogawa), cellular shape and fluorescence was measured before and 12 h as well as 24 h after compound treatment. All compounds were diluted in DMSO to a concentration of 10 mM.
The rather large spacing distance was used to create a robust readout, compensating potential plate variations and enabling automated screening without the use of autofocus. The overlap of the fluorescence emission spectra of the dyes was neglectable for all but the MitoTracker Red and Annexin V Alexa Fluor 680 (Supplementary Figure S9).
All images were analyzed using the CellPathfinder software (Yokogawa). Segmentation of cells was performed as described earlier. First, the cells are classified in Hoechst High Intensity Objects or Normal Intensity Objects (Supplementary Table S7). All normal gated cells are further classified in healthy, fragmented or pyknosed nuclei (Supplementary Table S7). The pyknosed cells are gated in mitotic or apoptotic cells using seven features for the cell body and five features for the cell nuclei according to their Annexin V staining intensity (Supplementary Table S7). All cells that were classified as including a healthy nucleus are further gated into three phenotypic classes. […] Growth rate was calculated against non-treated cells and cells treated with DMSO 0.1% [61].

[5] = tested on: FGFR; conditions: cited from earlier work
[6] = source not stated; cited from earlier work
[7] = tested on: U2OS cells; test: cells; conditions: Homo sapiens
[8] = read-out: IC 50 14 h, Table S2, 14 h
[9] = read-out: IC 50 26 h, Table S2, 26 h
[10] = read-out: IC 50 42 h, Table S2, 42 h
[11] = read-out: IC 50 56 h, Table S2, 56 h

With N#Cc1c2nc3ccccc3nc2n2ccc(NC(=O)c3cccs3)cc12 [HI-TOPK-032] as the compound, how does the main nuclei color [1] read?
Its main nuclei color is “yellow”.

And the “change of FUCCI nuclei population in comparison to DMSO” value (shortened to “change of FUCCI nuclei population”) [1]?
The value was “increased number of cells with yellow nuclei”.

What about the “known cell cycle effect” value [2] of the same compound?
Its value is “during mitosis, G1 cell”.

For Cc1sc2c(c1C)C(c1ccc(Cl)cc1)=N[C@@H](CC(=O)OC(C)(C)C)c1nnc(C)n1-2 [JQ1], which IC50 [3, 8] is on record?
Its IC50 is 9.7 µM.

What about the IC50 [3, 9] of the same compound?
The IC50 was 9 µM.

And the IC50 [3, 10]?
The IC50 was 13.7 µM.

And the IC50 [3, 11]?
Its IC50 is 0.2 µM.

Which results are given for CCN(CC)CCCCNc1ncc2cc(-c3cc(OC)cc(OC)c3)c(NC(=O)NC(C)(C)C)nc2n1 [PD173074]?
Hoechst High Intensity Objects (Hoechst intensity compared to normal nuclei) ([4]; 1 µM): more than 50%; compound precipitation in assay ([4]; 1 µM): precipitated; cellular activity [5]: less than 25 nM; logP [6]: 4.7

With CN1CCN(C(=O)C(C)(C)c2ccc(C(=O)Nc3cn4cc(-c5ccncc5)ccc4n3)cc2)CC1 [T3-CLK] as the compound, how does the main nuclei color [1] read?
Its main nuclei color is “green”.

And the “known cell cycle effect” value [2]?
The value was “G2/M cell cycle arrest”.

Which results are given for CC[C@@]1(O)C(=O)OCc2c1cc1n(c2=O)Cc2cc3ccccc3nc2-1 [camptothecin]?
change of FUCCI nuclei population in comparison to DMSO [1]: increase in green nuclei; known cell cycle effect [2]: mitotic arrest; Hoechst High Intensity Objects (Hoechst intensity compared to normal nuclei) ([4]; 1 µM): more than 50%; healthy nuclei (healthy cells) ([4]; 10 µM, 24 h): less than 50%; Hoechst High Intensity Objects ([4]; 10 µM, after 24 h, in one of two biological replicates): > 30%; IC50 ([7]; 14 h, read-out: IC 50 14 h): 2.6 µM; IC50 ([7]; 14 h, read-out: IC50, normalized healthy cell count): 4.7 µM; IC50 ([7]; 14 h, read-out: IC50, normalized healthy nuclear count): 6.1 µM; IC50 ([7]; 26 h, read-out: IC 50 26 h): 2.3 µM; IC50 ([7]; 28 h, read-out: IC50, normalized healthy cell count): 1.8 µM; IC50 ([7]; 28 h, read-out: IC50, normalized healthy nuclear count): 1.7 µM; IC50 ([7]; 42 h, read-out: IC 50 42 h): 1.5 µM; IC50 ([7]; 42 h, read-out: IC50, normalized healthy cell count): 0.29 µM; IC50 ([7]; 42 h, read-out: IC50, normalized healthy nuclear count): 0.438 µM; IC50 ([7]; 56 h, read-out: IC 50 56 h): 1.1 µM; IC50 ([7]; 56 h, read-out: IC50, normalized healthy cell count): 0.0509 µM; IC50 ([7]; 56 h, read-out: IC50, normalized healthy nuclear count): 0.0434 µM

With COc1cccc2c1C(=O)c1c(O)c3c(c(O)c1C2=O)C[C@@](O)(C(C)=O)C[C@@H]3O[C@H]1C[C@H](N)[C@H](O)[C@H](C)O1 [daunorubicin] as the compound, how does the “change of FUCCI nuclei population” value [1] read?
The value was “More yellow nuclei”.

What about the “known cell cycle effect” value [2] of the same compound?
The value was “breaks, cell cycle arrest”.

What about the “healthy nuclei (healthy cells)” value ([4]; 10 µM, 24 h) of the same compound?
Its value is “less than 50%”.

With COc1cccc2c1C(=O)c1c(O)c3c(c(O)c1C2=O)C[C@@](O)(C(=O)CO)C[C@@H]3O[C@H]1C[C@H](N)[C@H](O)[C@H](C)O1 [doxorubicin] as the compound, how does the “change of FUCCI nuclei population” value [1] read?
The value was “More yellow nuclei”.

What about the “known cell cycle effect” value [2] of the same compound?
The value was “G0/G1 cell cycle arrest”.

With CNC(=O)c1nn(C)c2c1C(C)(C)Cc1cnc(Nc3ccc(N4CCN(C)CC4)cc3)nc1-2 [milciclib] as the compound, how does the “cell cycle population distribution of healthy gated nuclei” value ([1]; 1 µM, after 18 h, versus DMSO) read?
Its value is “higher population of ‘red’ nuclei”.

What about the IC50 ([1]; 18h, read-out: IC50(18h), normalized healthy cell count) of the same compound?
The IC50 was 5.99 ± 0.26 µM.

What about the IC50 ([1]; 32h, read-out: IC50(32h), normalized healthy cell count) of the same compound?
The IC50 was 1.99 ± 0.35 µM.

What about the IC50 ([1]; 45h, read-out: IC50(45h), normalized healthy cell count) of the same compound?
Its IC50 is 0.85 ± 0.09 µM.

What about the IC50 ([1]; 59h, read-out: IC50(59h), normalized healthy cell count) of the same compound?
Its IC50 is 0.57 ± 0.05 µM.

What about the “known cell cycle effect” value [2] of the same compound?
The value was “G1 cell cy cle arrest”.

What about the “increase in mitochondrial mass in comparison to DMSO” value ([4]; 10 µM, 24 h, healthy nuclei only) of the same compound?
Its value is “over 60%”.

What about the IC50 ([7]; 14 h, read-out: IC 50 14 h) of the same compound?
The IC50 was 2.1 µM.

What about the IC50 ([7]; 26 h, read-out: IC 50 26 h) of the same compound?
Its IC50 is 0.8 µM.

What about the IC50 ([7]; 42 h, read-out: IC 50 42 h) of the same compound?
The IC50 was 0.6 µM.

And the IC50 ([7]; 56 h, read-out: IC 50 56 h)?
Its IC50 is 0.5 µM.

Which results are given for O=C1c2c(O)ccc(O)c2C(=O)c2c(NCCNCCO)ccc(NCCNCCO)c21 [mitoxantrone]?
change of FUCCI nuclei population in comparison to DMSO [1]: increase in green nuclei; known cell cycle effect [2]: delay in cell cycle

With CC(=O)O[C@H]1C(=O)[C@@]2(C)[C@H]([C@H](OC(=O)c3ccccc3)[C@]3(O)C[C@H](OC(=O)[C@H](O)[C@@H](NC(=O)c4ccccc4)c4ccccc4)C(C)=C1C3(C)C)[C@]1(OC(C)=O)CO[C@@H]1C[C@@H]2O [paclitaxel] as the compound, how does the “change of FUCCI nuclei population” value [1] read?
Its value is “increase in red nuclei”.

And the “known cell cycle effect” value [2]?
The value was “concentration-dependent”.

What about the IC50 ([7]; 14 h, read-out: IC 50 14 h) of the same compound?
The IC50 was > 2 µM.

And the IC50 ([7]; 26 h, read-out: IC 50 26 h)?
Its IC50 is 0.1 µM.

What about the IC50 ([7]; 42 h, read-out: IC 50 42 h) of the same compound?
Its IC50 is 0.06 µM.

And the IC50 ([7]; 56 h, read-out: IC 50 56 h)?
Its IC50 is 0.05 µM.

What does the source list for CCC(=O)N1CCN(c2ccc(-n3c(=O)ccc4cnc5ccc(-c6cnc7ccccc7c6)cc5c43)cc2C(F)(F)F)CC1 [torin]?
IC50 [3, 8]: 0.8 µM; IC50 [3, 9]: 0.8 µM; IC50 [3, 10]: 0.7 µM; IC50 [3, 11]: 0.7 µM

For O=c1cc(-c2ccccc2)oc2c1ccc1ccccc12 [α-naphthoflavone], which “change of FUCCI nuclei population” value [1] is on record?
The value was “increase in red nuclei”.

And the “known cell cycle effect” value [2]?
The value was “G1 cell cy cle arrest”.
